pIC50: −log10 of the molar value. Structures can show the parent of a compound that is named as a salt.
Key:
[1] = biological target: Rat recombinant PDE10a (rPDE10a) (Rattus norvegicus (Rat), UniProt Q9QYJ6); experiment: In vitro assay PDE10a: rat recombinant PDE10a SPA with 3H-cAMP substrate, IC50; type: biochemical; conditions: 60 nM cAMP, read-out: rPDE10a2 IC50
Method: In Vitro Assay PDE10a Rat recombinant PDE10a (rPDE10a) was expressed in Sf9 cells using a recombinant rPDE10a baculovirus construct. Cells were harvested after 48 h of infection and the rPDE10a protein was purified by metal chelate chromatography on Ni-sepharose 6FF. Tested compounds were dissolved and diluted in 100% DMSO to a concentration 100 fold of the final concentration in the assay. […] The reaction was incubated for 60 min at rt. After incubation, the reaction was stopped with 20 μL of 17.8 mg/mL PDE SPA beads. […] For blank values the enzyme was omitted from the reaction and replaced by incubation buffer.

[2] = biological target: Human recombinant PDE10A2 (Homo sapiens (Human), UniProt Q9Y233); experiment: In vitro hPDE10a: human recombinant PDE10A2 scintillation proximity assay, IC50; type: biochemical; conditions: human recombinant PDE10A2, SPA, 60 nM cAMP; read-out: hPDE10a2 IC50
Chain of Human recombinant PDE10A2 (Q9Y233 267-1055): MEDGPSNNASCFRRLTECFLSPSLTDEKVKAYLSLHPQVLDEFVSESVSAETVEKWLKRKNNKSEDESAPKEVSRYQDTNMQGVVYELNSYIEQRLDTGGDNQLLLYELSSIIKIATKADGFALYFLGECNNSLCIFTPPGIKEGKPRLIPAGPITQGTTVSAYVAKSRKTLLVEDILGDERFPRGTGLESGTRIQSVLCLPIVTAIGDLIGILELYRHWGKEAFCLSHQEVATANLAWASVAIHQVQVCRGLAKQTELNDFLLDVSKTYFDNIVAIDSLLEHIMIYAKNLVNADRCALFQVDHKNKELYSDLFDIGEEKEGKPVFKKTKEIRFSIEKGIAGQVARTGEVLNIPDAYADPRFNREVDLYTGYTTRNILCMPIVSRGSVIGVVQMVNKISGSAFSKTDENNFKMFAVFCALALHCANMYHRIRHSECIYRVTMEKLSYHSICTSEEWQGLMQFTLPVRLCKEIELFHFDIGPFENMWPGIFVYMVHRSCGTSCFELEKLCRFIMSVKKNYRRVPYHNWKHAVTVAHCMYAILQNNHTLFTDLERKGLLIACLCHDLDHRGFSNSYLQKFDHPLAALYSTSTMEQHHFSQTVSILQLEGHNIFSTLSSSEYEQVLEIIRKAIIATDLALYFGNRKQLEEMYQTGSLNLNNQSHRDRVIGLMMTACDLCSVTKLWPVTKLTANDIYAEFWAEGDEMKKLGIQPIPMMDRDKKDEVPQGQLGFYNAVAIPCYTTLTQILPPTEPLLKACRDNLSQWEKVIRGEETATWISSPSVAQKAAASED
Method: Cells were harvested and the phosphodiesterase protein was purified by metal chelate chromatography on Ni-sepharose 6FF. The affinity of the compounds of Formula (I) for phophodiesterases (PDE) was measured by a scintillation proximity assay (SPA). PDE Yttrium Silicate SPA beads allow PDE activity to be measured by direct binding of the primary phosphate groups of non-cyclic AMP or GMP to the beads via a complex iron chelation mechanism. The amount of bound tritiated product ([^3H]-AMP) is measured by liquid scintillation counting. The compounds were dissolved and diluted in 100% DMSO in polystyrene plates to a concentration of 100-fold the final concentration in the assay. […] After incubation, the reaction was stopped with 20 μL of stop solution, consisting of PDE SPA beads (17.8 mg beads/mL in 18 mM zinc sulphate). […] To measure the low control, no enzyme was added to the reaction mixture. Data were calculated as the percentage of inhibition of total activity measured in the absence of test compound (% control). […] For compounds tested more than once, the data points were aggregated.

Chain of Rat recombinant PDE10a (rPDE10a) (Q9QYJ6 whole entry): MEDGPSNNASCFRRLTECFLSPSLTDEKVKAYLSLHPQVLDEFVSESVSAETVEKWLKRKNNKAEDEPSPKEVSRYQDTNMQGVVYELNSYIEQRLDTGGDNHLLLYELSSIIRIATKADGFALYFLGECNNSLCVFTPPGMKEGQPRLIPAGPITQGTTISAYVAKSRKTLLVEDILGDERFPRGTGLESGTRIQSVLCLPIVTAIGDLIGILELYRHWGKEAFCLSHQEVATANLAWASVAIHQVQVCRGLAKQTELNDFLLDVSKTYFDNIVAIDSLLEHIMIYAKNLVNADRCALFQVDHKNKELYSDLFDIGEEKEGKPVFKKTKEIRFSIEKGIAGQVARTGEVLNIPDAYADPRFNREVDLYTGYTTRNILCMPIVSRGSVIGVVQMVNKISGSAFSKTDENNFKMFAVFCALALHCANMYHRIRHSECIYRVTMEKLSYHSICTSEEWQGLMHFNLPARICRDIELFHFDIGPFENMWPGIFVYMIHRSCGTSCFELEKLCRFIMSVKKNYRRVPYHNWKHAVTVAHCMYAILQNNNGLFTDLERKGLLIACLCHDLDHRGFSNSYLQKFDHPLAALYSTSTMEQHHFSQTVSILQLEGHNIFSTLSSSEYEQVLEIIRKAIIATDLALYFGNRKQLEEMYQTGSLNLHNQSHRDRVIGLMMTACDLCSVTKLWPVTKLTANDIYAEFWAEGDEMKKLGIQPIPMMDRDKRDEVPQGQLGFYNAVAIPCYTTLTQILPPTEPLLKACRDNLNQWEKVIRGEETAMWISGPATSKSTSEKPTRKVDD

Compound: O=C1NC(=O)C(c2ccc(-c3c(CCc4ccc5ccccc5n4)nc4c(N5CCOCC5)ccnn34)cc2)O1 (centres unmarked) [Cpd 70, 5-(4-(8-Morpholino-2-(2-(quinolin-2-yl)ethyl)imidazo[1,2-b]pyridazin-3-yl)phenyl)oxazolidine-2,4-dione]
- pIC50 [1]: 8.15
- pIC50 [2]: 8.40

Compound: O=C(O)[C@@H]1CCCN1C(=O)c1ccc(-c2c(/C=C/c3ccc4ccccc4n3)nc3c(N4CCOCC4)ccnn23)cc1 [Cpd 71, (S,E)-1-(4-(8-Morpholino-2-(2-(quinolin-2-yl)vinyl)imidazo[1,2-b]pyridazin-3-yl)benzoyl)pyrrolidine-2-carboxylic acid trifluoroacetic acid salt]
- pIC50 [1]: 8.10
- pIC50 [2]: 8.22

Compound: O=C(O)[C@@H]1CCCN1C(=O)c1ccc(-c2c(CCc3ccc4ccccc4n3)nc3c(N4CCOCC4)ccnn23)cc1 [Cpd 72, (S)-1-(4-(8-Morpholino-2-(2-(quinolin-2-yl)ethyl)imidazo[1,2-b]pyridazin-3-yl)benzoyl)pyrrolidine-2-carboxylic acid trifluoroacetic acid salt]
- pIC50 [1]: 8.10
- pIC50 [2]: 8.22

Compound: CC(C)[C@H](NC(=O)c1ccc(-c2c(/C=C/c3ccc4ccccc4n3)nc3c(N4CCOCC4)ccnn23)cc1)C(=O)O [Cpd 73, (S,E)-3-Methyl-2-(4-(8-morpholino-2-(2-(quinolin-2-yl)vinyl)imidazo[1,2-b]pyridazin-3-yl)benzamido)butanoic acid trifluoroacetic acid salt]
- pIC50 [1]: 8.15
- pIC50 [2]: 8.10

Compound: CC(C)[C@H](NC(=O)c1ccc(-c2c(CCc3ccc4ccccc4n3)nc3c(N4CCOCC4)ccnn23)cc1)C(=O)O [Cpd 75, N-({4-[8-Morpholin-4-yl-2-(2-quinolin-2-ylethyl)imidazo[1,2-b]pyridazin-3-yl]phenyl}carbonyl)-L-valine]
- pIC50 [1]: 8.15
- pIC50 [2]: 8.40

Compound: O=C(O)c1ccc(-c2c(C#Cc3ccc4ccccc4n3)nc3c(N4CCOCC4)ccnn23)cc1 [Cpd 77, 4-(8-Morpholino-2-(quinolin-2-ylethynyl)imidazo[1,2-b]pyridazin-3-yl)benzoic acid]
- pIC50 [1]: > 9.00
- pIC50 [2]: > 9.00

Compound: Cn1nc(-c2ccc(-c3c(CCc4ccc5ccccc5n4)nc4c(N5CCOCC5)ccnn34)cc2)[nH]c1=O [Cpd 78, 1-Methyl-3-[4-[8-(morpholin-4-yl)-2-[2-(quinolin-2-yl)ethyl]imidazo[1,2-b]pyridazin-3-yl]phenyl]-4,5-dihydro-1H-1,2,4-triazol-5-one]
- pIC50 [1]: 7.70
- pIC50 [2]: 7.82

Compound: O=C(O)c1ccc(-c2c(CCc3ccc4c(n3)CCCC4)nc3c(N4CCOCC4)ccnn23)cc1 [Cpd 79, 4-(8-Morpholino-2-(2-(5,6,7,8-tetrahydroquinolin-2-yl)ethyl)imidazo[1,2-b]pyridazin-3-yl)benzoic acid trifluoroacetic acid salt]
- pIC50 [1]: 8.10
- pIC50 [2]: 8.52

Compound: C(#Cc1cn2nccc(N3CCOCC3)c2n1)c1ccc2ccccc2n1 [Cpd 84, 2-[(8-Morpholin-4-ylimidazo[1,2-b]pyridazin-2-yl)ethynyl]quinoline]
- pIC50 [1]: > 9.00
- pIC50 [2]: > 9.00

Compound: O=C(O)c1ccc(-c2c(C#Cc3ccc4ccccc4n3)nc3c(N4CCOCC4)ccnn23)s1 [Cpd 85, 5-(8-Morpholino-2-(quinolin-2-ylethynyl)imidazo[1,2-b]pyridazin-3-yl)thiophene-2-carboxylic acid]
- pIC50 [1]: > 9.00
- pIC50 [2]: > 9.00

Compound: O=C(O)c1ccc(-c2c(C#Cc3ccccn3)nc3c(N4CCOCC4)ccnn23)cc1 [Cpd 86, 4-(8-Morpholino-2-(pyridin-2-ylethynyl)imidazo[1,2-b]pyridazin-3-yl)benzoic acid]
- pIC50 [1]: 8.70
- pIC50 [2]: 8.70

Compound: O=C(O)c1ccc(-c2c(C#Cc3nc4ccccc4s3)nc3c(N4CCOCC4)ccnn23)cc1 [Cpd 87, 4-(2-(Benzo[d]thiazol-2-ylethynyl)-8-morpholinoimidazo[1,2-b]pyridazin-3-yl)benzoic acid]
- pIC50 [1]: 9.00
- pIC50 [2]: 9.00

Compound: O=C(O)c1cccc(-c2c(C#Cc3ccc4ccccc4n3)nc3c(N4CCOCC4)ccnn23)c1 [Cpd 88, 3-(8-Morpholino-2-(quinolin-2-ylethynyl)imidazo[1,2-b]pyridazin-3-yl)benzoic acid trifluoroacetic acid salt]
- pIC50 [1]: > 9.00
- pIC50 [2]: > 9.00

Compound: O=C(O)c1ccc(-c2c(/C=C/c3ccccn3)nc3c(N4CCOCC4)ccnn23)cc1 [Cpd 89, (E)-4-(8-Morpholino-2-(2-(pyridin-2-yl)vinyl)imidazo[1,2-b]pyridazin-3-yl)benzoic acid]
- pIC50 [1]: 7.21
- pIC50 [2]: 7.05

Compound: O=C(O)c1ccc(-c2c(/C=C/c3nc4ccccc4s3)nc3c(N4CCOCC4)ccnn23)cc1 [Cpd 90, (E)-4-(2-(2-(Benzo[d]thiazol-2-yl)vinyl)-8-morpholinoimidazo[1,2-b]pyridazin-3-yl)benzoic acid]
- pIC50 [1]: 7.77
- pIC50 [2]: 7.72

Compound: O=C(O)CCNc1ccc(-c2c(/C=C/c3ccc4ccccc4n3)nc3c(N4CCOCC4)ccnn23)cc1 [Cpd 93, (E)-3-(4-(8-Morpholino-2-(2-(quinolin-2-yl)vinyl)imidazo[1,2-b]pyridazin-3-yl)phenylamino)propanoic acid trifluoroacetic acid salt]
- pIC50 [1]: 8.52
- pIC50 [2]: 8.52

Compound: O=C(O)c1ccc2ccc(/C=C/c3cn4nc(Cl)cc(N5CCOCC5)c4n3)nc2c1 [Cpd 94, 2-[(E)-2-(6-Chloro-8-morpholin-4-ylimidazo[1,2-b]pyridazin-2-yl)ethenyl]quinoline-7-carboxylic acid]
- pIC50 [1]: 7.09
- pIC50 [2]: 7.28

Compound: N#Cc1ccc(C#Cc2nc3c(N4CCOCC4)ccnn3c2-c2ccc(C(=O)O)cc2)nc1 [Cpd 96, 4-(2-((5-Cyanopyridin-2-yl)ethynyl)-8-morpholinoimidazo[1,2-b]pyridazin-3-yl)benzoic acid]
- pIC50 [1]: 7.51
- pIC50 [2]: 7.66

Compound: O=C(O)c1ccc(-c2c(C#Cc3ccc(C(F)(F)F)cn3)nc3c(N4CCOCC4)ccnn23)cc1 [Cpd 97, 4-(8-Morpholino-2-((5-(trifluoromethyl)pyridin-2-yl)ethynyl)imidazo[1,2-b]pyridazin-3-yl)benzoic acid]
- pIC50 [1]: 7.70
- pIC50 [2]: 7.66

Compound: CC(C)[C@H](Nc1ccc(-c2c(/C=C/c3ccc4ccccc4n3)nc3c(N4CCOCC4)ccnn23)cc1)C(=O)O [Cpd 99, (S,E)-3-Methyl-2-(4-(8-morpholino-2-(2-(quinolin-2-yl)vinyl)imidazo[1,2-b]pyridazin-3-yl)phenylamino)butanoic acid trifluoroacetic acid salt]
- pIC50 [1]: 7.92
- pIC50 [2]: 8.00

Compound: CC(C)[C@H](NC(=O)c1ccc(-c2c(C#Cc3ccc4ccccc4n3)nc3c(N4CCOCC4)ccnn23)cc1)C(=O)O [Cpd 101, (S)-3-Methyl-2-(4-(8-morpholino-2-(quinolin-2-ylethynyl)imidazo[1,2-b]pyridazin-3-yl)benzamido)butanoic acid trifluoroacetic acid salt]
- pIC50 [1]: 8.30
- pIC50 [2]: 8.40

Compound: CS(=O)(=O)NC(=O)c1cccc2nc(/C=C/c3cn4nc(Cl)cc(N5CCOCC5)c4n3)ccc12 [Cpd 104, 2-[(E)-2-(6-Chloro-8-morpholin-4-ylimidazo[1,2-b]pyridazin-2-yl)ethenyl]-N-(methylsulfonyl)quinoline-5-carboxamide]
- pIC50 [1]: 8.10
- pIC50 [2]: 8.52
